Source: US20070043024A1, “Azacyclic compounds as inhibitors of sensory neurone specific channels” (priority 2003, published 2007)

Each compound was assayed against T1, human Nav1.8 (hNav1.8) ion channel (Homo sapiens, UniProt Q9Y5Y9) (assay: Inhibition of human Nav1.8 stably expressed in SH-SY-5Y cells (membrane potential dye fluorescence assay)). Settings: Table 1; SH-SY-5Y hNav1.8 cells, inhibition of membrane depolarisation, FLIPR membrane potential dye, 250 nM TTX, test concentration range 100 μM-0.05 μM; read-out: IC50.
T1 construct: expressed in transfected cells
T1 sequence (Q9Y5Y9 whole entry): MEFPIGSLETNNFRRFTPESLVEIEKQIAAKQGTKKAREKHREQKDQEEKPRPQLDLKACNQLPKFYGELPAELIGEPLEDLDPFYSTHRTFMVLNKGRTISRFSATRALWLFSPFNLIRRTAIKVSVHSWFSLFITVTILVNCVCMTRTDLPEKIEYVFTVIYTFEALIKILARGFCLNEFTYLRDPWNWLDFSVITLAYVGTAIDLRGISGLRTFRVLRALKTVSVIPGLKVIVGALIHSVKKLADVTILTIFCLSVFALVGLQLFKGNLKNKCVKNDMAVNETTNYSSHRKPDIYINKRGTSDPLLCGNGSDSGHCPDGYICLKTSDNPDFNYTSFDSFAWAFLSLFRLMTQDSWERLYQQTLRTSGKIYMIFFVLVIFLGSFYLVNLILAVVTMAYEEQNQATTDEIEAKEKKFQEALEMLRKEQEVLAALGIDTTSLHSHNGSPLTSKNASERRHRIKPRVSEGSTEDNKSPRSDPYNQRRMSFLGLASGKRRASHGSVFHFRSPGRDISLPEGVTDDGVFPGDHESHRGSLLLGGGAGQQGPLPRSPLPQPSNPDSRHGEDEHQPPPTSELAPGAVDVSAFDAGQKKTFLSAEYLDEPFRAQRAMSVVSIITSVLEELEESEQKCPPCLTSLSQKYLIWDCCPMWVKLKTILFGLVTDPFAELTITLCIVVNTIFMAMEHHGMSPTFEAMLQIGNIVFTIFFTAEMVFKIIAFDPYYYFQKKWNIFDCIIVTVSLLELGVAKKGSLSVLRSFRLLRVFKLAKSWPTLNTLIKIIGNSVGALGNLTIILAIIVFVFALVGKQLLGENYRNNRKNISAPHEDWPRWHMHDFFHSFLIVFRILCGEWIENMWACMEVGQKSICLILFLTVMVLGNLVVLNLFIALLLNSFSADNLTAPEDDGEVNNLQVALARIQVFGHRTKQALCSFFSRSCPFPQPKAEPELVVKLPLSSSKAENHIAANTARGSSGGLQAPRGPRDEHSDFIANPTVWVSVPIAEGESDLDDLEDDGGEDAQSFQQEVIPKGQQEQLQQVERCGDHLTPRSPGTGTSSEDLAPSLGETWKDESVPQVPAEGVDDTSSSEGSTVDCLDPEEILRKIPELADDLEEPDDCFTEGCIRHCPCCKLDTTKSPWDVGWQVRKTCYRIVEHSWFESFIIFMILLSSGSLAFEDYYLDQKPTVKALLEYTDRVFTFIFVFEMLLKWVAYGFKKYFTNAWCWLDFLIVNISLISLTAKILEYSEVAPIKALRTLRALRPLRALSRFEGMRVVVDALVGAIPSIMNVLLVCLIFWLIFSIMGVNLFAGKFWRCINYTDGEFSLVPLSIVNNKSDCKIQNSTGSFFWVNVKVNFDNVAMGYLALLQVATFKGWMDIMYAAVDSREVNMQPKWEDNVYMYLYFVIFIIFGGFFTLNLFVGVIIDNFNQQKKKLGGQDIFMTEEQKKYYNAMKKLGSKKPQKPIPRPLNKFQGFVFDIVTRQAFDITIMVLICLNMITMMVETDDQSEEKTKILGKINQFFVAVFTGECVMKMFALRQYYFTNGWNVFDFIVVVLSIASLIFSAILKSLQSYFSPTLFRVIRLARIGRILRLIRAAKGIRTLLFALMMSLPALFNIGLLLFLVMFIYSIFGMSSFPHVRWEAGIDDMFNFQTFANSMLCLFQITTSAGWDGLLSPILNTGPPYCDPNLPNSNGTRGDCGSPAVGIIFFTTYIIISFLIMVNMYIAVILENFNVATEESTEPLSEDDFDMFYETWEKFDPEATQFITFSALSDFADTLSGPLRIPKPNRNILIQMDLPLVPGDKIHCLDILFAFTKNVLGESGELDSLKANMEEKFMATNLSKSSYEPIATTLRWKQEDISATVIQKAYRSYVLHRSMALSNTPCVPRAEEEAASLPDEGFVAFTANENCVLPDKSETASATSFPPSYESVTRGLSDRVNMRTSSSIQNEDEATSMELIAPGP
Type: cell-based

SMILES | IC50
Oc1cccc2c1CN(CCN(Cc1ccccc1)Cc1ccccc1)CC2 [Example 8] | 410 nM
Fc1ccc(C(CCCN2CCc3ccccc3C2)c2ccc(F)cc2)cc1 [Example 9, 2-[4,4-Bis-(4-fluoro-phenyl)-butyl]-1,2,3,4-tetrahydro-isoquinoline] | 430 nM
COc1cccc2c1CN(CCCC(c1ccc(F)cc1)c1ccc(F)cc1)CC2 [Example 10, 2-[4,4-Bis-(4-fluoro-phenyl)-butyl]-8-methoxy-1,2,3,4-tetrahydro-isoquinoline] | 480 nM
Oc1cccc2c1CN(CC(c1ccccc1)c1ccccc1)CC2 [Example 11, 2-(2,2-Diphenyl-ethyl)-1,2,3,4-tetrahydro-isoquinoline-8-ol] | 600 nM
c1ccc(C(CN2CCc3ccccc3C2)c2ccccc2)cc1 [Example 12, 2-(2,2-Diphenyl-ethyl)1,2,3,4-tetrahydro-isoquinoline] | 990 nM
COc1cccc2c1CN(CC(c1ccccc1)c1ccccc1)CC2 [Example 13, 2-(2,2-Diphenyl-ethyl)-8-methoxy-1,2,3,4-tetrahydro-isoquinoline] | 1390 nM
O=C(CN1CCc2ccccc2C1)NC(c1ccccc1)c1ccccc1 [Example 14, N-Benzyhydryl-2-(3,4-dihydro-1H-isoquinolin-2-yl)-acetamide] | 1590 nM

Same assay, conditions: Table 2 (compound numbers of the list in the description); SH-SY-5Y hNav1.8 cells, inhibition of membrane depolarisation, FLIPR membrane potential dye, 250 nM TTX, test concentration range 100 μM-0.05 μM; read-out: IC50

SMILES | IC50
CC(C)(C)C1COc2ccccc2N1C(=O)CN1CCc2cccc(O)c2C1 (centres unmarked) [Compound 211, 1-(3-tert-Butyl-2,3-dihydro-benzo[1,4]oxazin-4-yl)-2-(8-hydroxy-3,4-dihydro-1H-isoquinolin-2-yl)-ethanone] | 3030 nM
COc1ccc(C2COc3ccccc3N2C(=O)CN2CCc3cccc(OC)c3C2)cc1 (centres unmarked) [Compound 212, 2-(8-Methoxy-3,4-dihydro-1H-isoquinolin-2-yl)-1-[3-(4-methoxy-phenyl)-2,3-dihydro-benzo[1,4]oxazin-4-yl]-ethanone] | 5060 nM
COc1ccc(OC)c(C2COc3ccccc3N2C(=O)CN2CCc3cccc(OC)c3C2)c1 (centres unmarked) [Compound 213, 1-[3-(2,5-Dimethoxy-phenyl)-2,3-dihydro-benzo[1,4]oxazin-4-yl]-2-(8-methoxy-3,4-dihydro-1H-isoquinolin-2-yl)-ethanone] | 8240 nM
COc1cccc2c1CN(CC(=O)N1c3ccccc3OCC1c1ccc(NC(C)=O)cc1)CC2 (centres unmarked) [Compound 214, N-(4-{4-[2-(8-Methoxy-3,4-dihydro-1H-isoquinolin-2-yl)-acetyl]-3,4-dihydro-2H-benzo[1,4]oxazin-3-yl}-phenyl)-acetamide] | 6360 nM
COc1cccc2c1CN(CC(=O)N1c3ccccc3OCC1c1ccc(F)cc1)CC2 (centres unmarked) [Compound 215, 1-[3-(4-Fluoro-phenyl)-2,3-dihydro-benzo[1,4]oxazin-4-yl]-2-(8-methoxy-3,4-dihydro-1H-isoquinolin-2-yl)-ethanone] | 1110 nM
COc1ccc(C2COc3ccccc3N2C(=O)CN2CCc3cccc(OC)c3C2)cc1OC (centres unmarked) [Compound 216, 1-[3-(3,4-Dimethoxy-phenyl)-2,3-dihydro-benzo[1,4]oxazin-4-yl]-2-(8-methoxy-3,4-dihydro-1H-isoquinolin-2-yl)-ethanone] | 4310 nM
COc1cccc2c1CN(C(C)C(=O)N1c3ccccc3Oc3ccccc31)C2 (centres unmarked) [Compound 217, 2-(4-Methoxy-1,3-dihydro-isoindol-2-yl)-1-phenoxazin-10-yl-propan-1-one] | 1960 nM
O=C(CN1c2ccccc2Oc2ccccc21)N1Cc2ccccc2C1 [Compound 218, 1-(1,3-Dihydro-isoindol-2-yl)-2-phenoxazin-10-yl-ethanone] | 12800 nM
O=C(CN1Cc2cccc(Cl)c2C1)N1c2ccccc2Oc2ccccc21 [Compound 219, 2-(4-Chloro-1,3-dihydro-isoindol-2-yl)-1-phenoxazin-10-yl-ethanone] | 800 nM
N#Cc1cccc2c1CN(CC(=O)N1c3ccccc3Oc3ccccc31)C2 [Compound 220, 2-(2-Oxo-2-phenoxazin-10-yl-ethyl)-2,3-dihydro-1H-isoindole-4-carbonitrile] | 800 nM
